Results as given in US20160120863A1, “SLC2A TRANSPORTER INHIBITORS” (IOMET PHARMA LTD., priority 2013, published 2016).

Legend:
human GLUT1 = biological target: T1, human GLUT1 (Homo sapiens, UniProt P11166); assay: [3H]-deoxy-D-glucose uptake assay, GLUT1; format: cell-based; conditions: [3H]-deoxy-D-glucose uptake in HEK293 cells stably expressing human GLUT1
T1 construct: expressed in transfected cells
T1 sequence (P11166 1-492): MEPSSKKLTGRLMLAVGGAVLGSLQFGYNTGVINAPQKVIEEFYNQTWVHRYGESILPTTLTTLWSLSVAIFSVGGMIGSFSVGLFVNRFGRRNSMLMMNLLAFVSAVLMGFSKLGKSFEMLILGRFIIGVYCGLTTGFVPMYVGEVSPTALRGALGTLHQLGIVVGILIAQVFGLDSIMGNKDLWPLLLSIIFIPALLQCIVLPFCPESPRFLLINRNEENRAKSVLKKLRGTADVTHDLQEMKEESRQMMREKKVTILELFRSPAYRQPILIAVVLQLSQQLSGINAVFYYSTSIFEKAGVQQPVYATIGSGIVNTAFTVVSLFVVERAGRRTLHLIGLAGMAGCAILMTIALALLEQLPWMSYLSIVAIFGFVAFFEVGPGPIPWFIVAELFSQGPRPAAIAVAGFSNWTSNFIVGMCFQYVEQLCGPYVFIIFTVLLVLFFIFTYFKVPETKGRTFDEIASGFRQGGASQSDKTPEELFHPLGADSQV
In short: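 HEK293 cells stably overexpressing human GLUT1 or GLUT2, seeded at 60,000 per well, treated with compounds in glucose-free uptake buffer for 30 min at 37 °C. [3H]-deoxy-D-glucose uptake quantified by scintillation counting after ice-cold PBS washes; IC50 determined.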

human GLUT2 = biological target: T2, human GLUT2 (Homo sapiens, UniProt P11168); assay: [3H]-deoxy-D-glucose uptake assay, GLUT2; format: cell-based; conditions: [3H]-deoxy-D-glucose uptake in HEK293 cells stably expressing human GLUT2
T2 construct: expressed in transfected cells
T2 sequence (P11168 1-524): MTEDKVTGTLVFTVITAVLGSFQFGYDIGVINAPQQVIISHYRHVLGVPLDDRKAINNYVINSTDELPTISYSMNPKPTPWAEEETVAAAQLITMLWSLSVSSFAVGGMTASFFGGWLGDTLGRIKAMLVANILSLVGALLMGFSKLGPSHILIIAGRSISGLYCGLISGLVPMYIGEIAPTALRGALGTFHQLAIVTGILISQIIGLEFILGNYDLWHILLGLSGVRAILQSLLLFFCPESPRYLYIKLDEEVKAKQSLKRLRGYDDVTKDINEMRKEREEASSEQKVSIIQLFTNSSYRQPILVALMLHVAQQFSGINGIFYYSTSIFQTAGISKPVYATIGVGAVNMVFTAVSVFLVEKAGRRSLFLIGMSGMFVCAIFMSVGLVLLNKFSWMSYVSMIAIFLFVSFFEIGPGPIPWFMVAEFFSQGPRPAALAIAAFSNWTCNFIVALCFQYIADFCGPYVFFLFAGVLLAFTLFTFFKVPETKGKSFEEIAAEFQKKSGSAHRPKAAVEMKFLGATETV
Experimental: HEK293 cells were engineered to stably express either human GLUT1, GLUT2, GLUt3 or GLUT4 by transfection with the pReceiver-Lv105 plasmid, containing either hGLUT1, hGLUT2, hGLUT3, or hGLUT4 gene constructs with lipofectamine 2000, hGLUT1- hGLUT2- hGLUT3- or hGLUT4-overexpressing polyclonal populations were isolated under purinomycin selective pressure (1 μg/ml) and maintained in Dulbecco's modified Eagle's medium supplemented with 1 μg/ml purinomycin+10% foetal bovine serum (FBS).
60,000 cells per well were seeded overnight into poly-D-lysine coasted 96-well plates. […] 90 μl of test compounds were added in glucose-free uptake buffer and cells were incubated at 37° C. for 30 min.
Cells were then washed twice with ice-cold PBS and 100 μl of Microscint-20 was added per well. Glucose uptake was quantified with a scintillation counter. The half maximal inhibitory concentration (IC50) (a measure of the effectiveness of the test compound in inhibiting glucose uptake) was determined.

GLUT1 pIC50 (human GLUT1) | GLUT2 pIC50 (human GLUT2) | Structure (SMILES)
+++ (pIC50 ≧ 6.00) | +++ (pIC50 ≧ 6.00) | N#Cc1ccccc1-c1ccc2nc(-c3ccc(Cl)cc3)c(CN3CCOCC3)n2c1 [Compound 91]
+++ (pIC50 ≧ 6.00) | +++ (pIC50 ≧ 6.00) | COc1ccc(C(=O)N2CCN(Cc3c(-c4ccc(Cl)cc4)nc4ccc(-c5ccccc5)cn34)CC2)cc1 [Compound 126]
+− (pIC50 < 4.00) | +− (pIC50 < 4.00) | O=C(Nc1cccc(F)c1)N1CCN(Cc2c(-c3ccc(Cl)cc3)nc3ccc(-c4ccccc4)cn23)CC1 [Compound 127]
+++ (pIC50 ≧ 6.00) | +++ (pIC50 ≧ 6.00) | O=C(C1COC1)N1CCN(Cc2c(-c3ccc(Cl)cc3)nc3ccc(-c4ccccc4)cn23)CC1 [Compound 171]
+++ (pIC50 ≧ 6.00) |  | COCC(=O)N1CCN(Cc2c(-c3ccc(Cl)cc3)nc3ccc(-c4c(F)cccc4F)cn23)CC1 [Compound 225]
+++ (pIC50 ≧ 6.00) |  | CC(=O)N1CCN(Cc2c(-c3ccc(Cl)cc3)nc3ccc(-c4c(F)cccc4F)cn23)CC1 [Compound 226]
+− (pIC50 < 4.00) |  | CN(CC(=O)N(C)C)Cc1c(-c2ccc(Cl)cc2)nc2ccc(-c3ccccc3)cn12 [Compound 228]
+++ (pIC50 ≧ 6.00) |  | O=C(c1cocn1)N1CCN(Cc2c(-c3ccc(Cl)cc3)nc3ccc(-c4ccccc4)cn23)CC1 [Compound 229]
+++ (pIC50 ≧ 6.00) |  | O=C(c1ccc(=O)[nH]c1)N1CCN(Cc2c(-c3ccc(Cl)cc3)nc3ccc(-c4ccccc4)cn23)CC1 [Compound 230]
+++ (pIC50 ≧ 6.00) |  | CC(=O)N1CCCN(Cc2c(-c3ccc(Cl)cc3)nc3ccc(-c4ccccc4)cn23)CC1 [Compound 231]
+++ (pIC50 ≧ 6.00) |  | O=C(c1cnco1)N1CCN(Cc2c(-c3ccc(Cl)cc3)nc3ccc(-c4ccccc4)cn23)CC1 [Compound 233]
+++ (pIC50 ≧ 6.00) |  | O=C(c1ccncc1)N1CCN(Cc2c(-c3ccc(Cl)cc3)nc3ccc(-c4c(F)cccc4F)cn23)CC1 [Compound 235]
++ (pIC50 5.00-5.99) |  | Clc1ccc(-c2nc3ccc(C4CCOCC4)cn3c2CN2CCOCC2)cc1 [Compound 237]
+++ (pIC50 ≧ 6.00) |  | N#Cc1ccccc1-c1ccc2nc(-c3ccc(Cl)cc3)c(CN3CCNC(=O)C3)n2c1 [Compound 239]
++ (pIC50 5.00-5.99) |  | Clc1ccc(-c2nc3ccc(C4CCCC4)cn3c2CN2CCOCC2)cc1 [Compound 240]
++ (pIC50 5.00-5.99) |  | Clc1ccc(-c2nc3ccc(-c4ncccn4)cn3c2CN2CCOCC2)cc1 [Compound 241]
+++ (pIC50 ≧ 6.00) |  | Cn1cc(C(=O)N2CCN(Cc3c(-c4ccc(Cl)cc4)nc4ccc(-c5ccccc5)cn34)CC2)cn1 [Compound 243]
+++ (pIC50 ≧ 6.00) |  | O=C(c1cc[nH]c(=O)c1)N1CCN(Cc2c(-c3ccc(Cl)cc3)nc3ccc(-c4ccccc4)cn23)CC1 [Compound 244]
+− (pIC50 < 4.00) |  | OC(c1c(-c2ccc(Cl)cc2)nc2ccc(-c3ccccc3)cn12)C1CCCN1 (centres unmarked) [Compound 245]
++ (pIC50 5.00-5.99) |  | Cn1ccnc1C(=O)N1CCN(Cc2c(-c3ccc(Cl)cc3)nc3ccc(-c4ccccc4)cn23)CC1 [Compound 246]
++ (pIC50 5.00-5.99) |  | CN1CCN(Cc2c(-c3ccc(Cl)cc3)nc3ccc(-c4ccccc4)cn23)CC1=O [Compound 248]
++ (pIC50 5.00-5.99) |  | Fc1cc(Cl)ccc1-c1nc2ccc(-c3ccccc3)cn2c1CN1CCOCC1 [Compound 249]
+++ (pIC50 ≧ 6.00) |  | O=C(c1cn[nH]c1)N1CCN(Cc2c(-c3ccc(Cl)cc3)nc3ccc(-c4ccccc4)cn23)CC1 [Compound 250]
++ (pIC50 5.00-5.99) |  | Fc1cccnc1-c1ccc2nc(-c3ccc(Cl)cc3)c(CN3CCOCC3)n2c1 [Compound 251]
+++ (pIC50 ≧ 6.00) |  | O=C(c1cnccn1)N1CCN(Cc2c(-c3ccc(Cl)cc3)nc3cnc(C4CC4)cn23)CC1 [Compound 255]

GLUT1 pIC50 (human GLUT1) | GLUT2 pIC50 (human GLUT2) | Structure (SMILES)
+++ (pIC50 ≧ 6.00) |  | O=C(C1CCOCC1)N1CCN(Cc2c(-c3ccc(Cl)cc3)nc3cnc(C4CC4)cn23)CC1 [Compound 256]
+++ (pIC50 ≧ 6.00) |  | COCC(=O)N1CCN(Cc2c(-c3ccc(Cl)cc3)nc3ccc(NS(C)(=O)=O)cn23)CC1 [Compound 260]
+++ (pIC50 ≧ 6.00) |  | O=C(c1cnccn1)N1CCN(Cc2c(-c3ccc(Cl)cc3)nc3ccc(C4CC4)cn23)CC1 [Compound 263]
+++ (pIC50 ≧ 6.00) |  | O=C(c1nccs1)N1CCN(Cc2c(-c3ccc(Cl)cc3)nc3ccc(-c4ccccc4)cn23)CC1 [Compound 266]
+++ (pIC50 ≧ 6.00) |  | O=C(c1cscn1)N1CCN(Cc2c(-c3ccc(Cl)cc3)nc3cnc(C4CC4)cn23)CC1 [Compound 267]
+++ (pIC50 ≧ 6.00) |  | O=C(c1ccnnc1)N1CCN(Cc2c(-c3ccc(Cl)cc3)nc3cnc(C4CC4)cn23)CC1 [Compound 268]
+++ (pIC50 ≧ 6.00) |  | CC(=O)N1CCN(Cc2c(-c3ccc(Cl)cc3)nc3ccc(-c4ncon4)cn23)CC1 [Compound 270]
+++ (pIC50 ≧ 6.00) |  | O=C(C1COC1)N1CCN(Cc2c(-c3ccc(Cl)cc3)nc3cnc(C4CC4)cn23)CC1 [Compound 274]
++ (pIC50 5.00-5.99) |  | COCC(=O)N1CCN(Cc2c(-c3ccc(Cl)cc3)nc3ccc([N+](=O)[O-])cn23)CC1 [Compound 275]
+− (pIC50 < 4.00) |  | CC(=O)N1CCN(Cc2c(-c3ccc(Cl)cc3)nc3ccc(N)cn23)CC1 [Compound 276]
+++ (pIC50 ≧ 6.00) |  | O=C(CO)N1CCN(Cc2c(-c3ccc(Cl)cc3)nc3ccc(-c4ccccc4)cn23)CC1 [Compound 277]
+++ (pIC50 ≧ 6.00) |  | CS(=O)(=O)Nc1ccc2nc(-c3ccc(Cl)cc3)c(CN3CCN(C(=O)c4cscn4)CC3)n2c1 [Compound 279]
+− (pIC50 < 4.00) |  | COCC(=O)N1CCN(Cc2c(-c3ccc(Cl)cc3)nc3ccc(N)cn23)CC1 [Compound 280]
+++ (pIC50 ≧ 6.00) |  | O=C(c1ccncc1)N1CCN(Cc2c(-c3ccc(Cl)cc3)nc3ccc(-c4ncon4)cn23)CC1 [Compound 281]
+− (pIC50 < 4.00) |  | O=C(c1c(-c2ccc(Cl)cc2)nc2ccc(-c3ccccc3)cn12)N1CCOCC1 [Compound 282]
+− (pIC50 < 4.00) |  | CN1CCN(C(=O)c2c(-c3ccc(Cl)cc3)nc3ccc(-c4ccccc4)cn23)CC1 [Compound 283]
+++ (pIC50 ≧ 6.00) |  | COCC(=O)N1CCN(Cc2c(-c3ccc(Cl)cc3)nc3ccc(-c4ncon4)cn23)CC1 [Compound 284]
+++ (pIC50 ≧ 6.00) |  | O=C(C1COC1)N1CCN(Cc2c(-c3ccc(Cl)cc3)nc3ccc(-c4ncon4)cn23)CC1 [Compound 285]
+++ (pIC50 ≧ 6.00) |  | CS(=O)(=O)Nc1ccc2nc(-c3ccc(Cl)cc3)c(CN3CCN(C(=O)C4COC4)CC3)n2c1 [Compound 286]
+++ (pIC50 ≧ 6.00) |  | Clc1ccc(-c2nc3ccc(-c4nccs4)cn3c2CN2CCOCC2)cc1 [Compound 287]
+++ (pIC50 ≧ 6.00) |  | O=C1CN(Cc2c(-c3ccc(Cl)cc3)nc3cnc(C4CC4)cn23)CCN1 [Compound 288]
+++ (pIC50 ≧ 6.00) |  | CS(=O)(=O)Nc1ccc2nc(-c3ccc(Cl)cc3)c(CN3CCNC(=O)C3)n2c1 [Compound 289]
+− (pIC50 < 4.00) |  | CC(C)(C)OC(=O)N1CCN(C(=O)c2c(-c3ccc(Cl)cc3)nc3ccc(-c4ccccc4)cn23)CC1 [Compound 290]
+− (pIC50 < 4.00) |  | O=C(c1c(-c2ccc(Cl)cc2)nc2ccc(-c3ccccc3)cn12)N1CCNCC1 [Compound 291]
